Like-named read-outs stand apart in the source and are kept apart here.
Assays:
[1] = test system: HCV genotype 1a (strain H77) subgenomic replicon with NS3 resistance mutation R155K in Huh-7 cells; assay: HCV replicon RNA replication assay (NS3 protease variants), genotype 1a R155K; assay type: cell-based; conditions: Hepatitis C virus
[2] = test system: HCV genotype 1b (Con-1) subgenomic replicon with NS3 resistance mutation D168V in Huh-7 cells; assay: HCV replicon RNA replication assay (NS3 protease variants), genotype 1b D168V; assay type: cell-based; conditions: Hepatitis C virus
[3] = Huh-7, 72 h, read-out: R155K 1a EC50 (nM)
[4] = Huh-7, 72 h, read-out: D168V 1b EC50 (nM)

Row | Compound | EC50 [1, 3] [nM] | EC50 [2, 4] [nM] | EC50 ([1]; Huh-7, read-out: R155K 1a Ec50 (nM)) [nM] | EC50 ([2]; Huh-7, read-out: D168V 1b Ec50 (nM)) [nM]
1 | CCOc1cc(O[C@@H]2C[C@H]3C(=O)N[C@]4(C(=O)NS(=O)(=O)C5(C)CC5)C[C@H]4/C=C\CCCCC[C@H](NC(=O)c4ccn(CC(F)(F)F)n4)C(=O)N3C2)c2ccc(OC)c(C)c2n1 [Compound 1029, (2R,6S,12Z,13aS,14aR,16aS)-2-[(2-ethoxy-7-methoxy-8-methylquinolin-4-yl)oxy]-N-[(1-methylcyclopropyl)sulfonyl]-5,16-dioxo-6-({[1-(2,2,2-trifluoroethyl)-1H-pyrazol-3-yl]carbonyl}amino)-1,2,3,6,7,8,9,10,11,13a,14,15,16,16a-tetradecahydrocyclopropa[e]pyrrolo[1,2-a][1,4]diazacyclopentadecine-14a(5H)-carboxamide] | 6 | 0.37 |  | 
2 | COc1ccc2c(O[C@@H]3C[C@H]4C(=O)N[C@]5(C(=O)NS(=O)(=O)C6(C)CC6)C[C@H]5/C=C\CCCCC[C@H](NC(=O)N(C)C)C(=O)N4C3)cc(OC(C)C)nc2c1C [Compound 2008, (2R,6S,12Z,13aS,14aR,16aS)-6-[(dimethylcarbamoyl)amino]-2-{[7-methoxy-8-methyl-2-(propan-2-yloxy)quinolin-4-yl]oxy}-N-[(1-methylcyclopropyl)sulfonyl]-5,16-dioxo-1,2,3,6,7,8,9,10,11,13a,14,15,16,16a-tetradecahydrocyclopropa[e]pyrrolo[1,2-a][1,4]diazacyclopentadecine-14a(5H)-carboxamide] | 6.7 | 1.5 |  | 
3 | COc1ccc2c(O[C@@H]3C[C@H]4C(=O)N[C@]5(C(=O)NS(=O)(=O)C6CC6)C[C@H]5/C=C\CCCCC[C@H](NC(=O)c5cnn(C)n5)C(=O)N4C3)cc(OC(C)C)nc2c1C [Compound 1013, (2R,6S,12Z,13aS,14aR,16aS)-N-(cyclopropylsulfonyl)-2-{[7-methoxy-8-methyl-2-(propan-2-yloxy)quinolin-4-yl]oxy}-6-{[(2-methyl-2H-1,2,3-triazol-4-yl)carbonyl]amino}-5,16-dioxo-1,2,3,6,7,8,9,10,11,13a,14,15,16,16a-tetradecahydrocyclopropa[e]pyrrolo[1,2-a][1,4]diazacyclopentadecine-14a(5H)-carboxamide] | 7.8 | 0.52 |  | 
4 | COc1ccc2c(O[C@@H]3C[C@H]4C(=O)N[C@]5(C(=O)NS(=O)(=O)C6(C)CC6)C[C@H]5/C=C\CCCCC[C@H](NC(=O)c5ccn(C(F)F)n5)C(=O)N4C3)cc(OC(C)C)nc2c1C [Compound 1018, (2R,6S,12Z,13aS,14aR,16aS)-6-({[1-(difluoromethyl)-1H-pyrazol-3-yl]carbonyl}amino)-2-{[7-methoxy-8-methyl-2-(propan-2-yloxy)quinolin-4-yl]oxy}-N-[(1-methylcyclopropyl)sulfonyl]-5,16-dioxo-1,2,3,6,7,8,9,10,11,13a,14,15,16,16a-tetradecahydrocyclopropa[e]pyrrolo[1,2-a][1,4]diazacyclopentadecine-14a(5H)-carboxamide] | 2.4 | 0.14 |  | 
5 | CC(C)Oc1cc(O[C@@H]2C[C@H]3C(=O)N[C@]4(C(=O)NS(=O)(=O)C5(C)CC5)C[C@H]4/C=C\CCCCC[C@H](NC(=O)c4ccn(C)n4)C(=O)N3C2)c2ccc(F)c(F)c2n1 [Compound 1008, (2R,6S,12Z,13aS,14aR,16aS)-2-{[7,8-difluoro-2-(propan-2-yloxy)quinolin-4-yl]oxy}-N-[(1-methylcyclopropyl)sulfonyl]-6-{[(1-methyl-1H-pyrazol-3-yl)carbonyl]amino}-5,16-dioxo-1,2,3,6,7,8,9,10,11,13a,14,15,16,16a-tetradecahydrocyclopropa[e]pyrrolo[1,2-a][1,4]diazacyclopentadecine-14a(5H)-carboxamide] | 2.9 | 0.35 |  | 
6 | COc1ccc2c(O[C@@H]3C[C@H]4C(=O)N[C@]5(C(=O)NS(=O)(=O)C6(C)CC6)C[C@H]5/C=C\CCCCC[C@H](NC(=O)c5ccn(C(C)C)n5)C(=O)N4C3)cc(OC(C)C)nc2c1C [Compound 1021, (2R,6S,12Z,13aS,14aR,16aS)-2-{[7-methoxy-8-methyl-2-(propan-2-yloxy)quinolin-4-yl]oxy}-N-[(1-methylcyclopropyl)sulfonyl]-5,16-dioxo-6-({[1-(propan-2-yl)-1H-pyrazol-3-yl]carbonyl}amino)-1,2,3,6,7,8,9,10,11,13a,14,15,16,16a-tetradecahydrocyclopropa[e]pyrrolo[1,2-a][1,4]diazacyclopentadecine-14a(5H)-carboxamide] | 4.3 | 0.24 |  | 
7 | Cc1c(F)ccc2c(O[C@@H]3C[C@H]4C(=O)N[C@]5(C(=O)NS(=O)(=O)C6(C)CC6)C[C@H]5/C=C\CCCCC[C@H](NC(=O)N(C)C)C(=O)N4C3)cc(OC(C)C)nc12 [Compound 2018, (2R,6S,12Z,13aS,14aR,16aS)-6-[(dimethylcarbamoyl)amino]-2-{[7-fluoro-8-methyl-2-(propan-2-yloxy)quinolin-4-yl]oxy}-N-[(1-methylcyclopropyl)sulfonyl]-5,16-dioxo-1,2,3,6,7,8,9,10,11,13a,14,15,16,16a-tetradecahydrocyclopropa[e]pyrrolo[1,2-a][1,4]diazacyclopentadecine-14a(5H)-carboxamide] | 5.7 | 1.2 |  | 
8 | COc1c(Cl)ccc2c(O[C@@H]3C[C@H]4C(=O)N[C@]5(C(=O)NS(=O)(=O)C6(C)CC6)C[C@H]5/C=C\CCCCC[C@H](NC(=O)c5ccn(C)n5)C(=O)N4C3)cc(OC(C)C)nc12 [Compound 1010, (2R,6S,12Z,13aS,14aR,16aS)-2-{[7-chloro-8-methoxy-2-(propan-2-yloxy)quinolin-4-yl]oxy}-N-[(1-methylcyclopropyl)sulfonyl]-6-{[(1-methyl-1H-pyrazol-3-yl)carbonyl]amino}-5,16-dioxo-1,2,3,6,7,8,9,10,11,13a,14,15,16,16a-tetradecahydrocyclopropa[e]pyrrolo[1,2-a][1,4]diazacyclopentadecine-14a(5H)-carboxamide] | 7 | 0.33 |  | 
9 | COc1ccc2c(O[C@@H]3C[C@H]4C(=O)N[C@]5(C(=O)NS(=O)(=O)C6CC6)C[C@H]5/C=C\CCCCC[C@H](NC(=O)N5CC(C)(C)C5)C(=O)N4C3)cc(OC(C)C)nc2c1C [Compound 2011, (2R,6S,12Z,13aS,14aR,16aS)-N-(cyclopropylsulfonyl)-6-{[(3,3-dimethylazetidin-1-yl)carbonyl]amino}-2-{[7-methoxy-8-methyl-2-(propan-2-yloxy)quinolin-4-yl]oxy}-5,16-dioxo-1,2,3,6,7,8,9,10,11,13a,14,15,16,16a-tetradecahydrocyclopropa[e]pyrrolo[1,2-a][1,4]diazacyclopentadecine-14a(5H)-carboxamide] | 6.1 | 3.9 |  | 
10 | COc1ccc2c(O[C@@H]3C[C@H]4C(=O)N[C@]5(C(=O)NS(=O)(=O)C6(C)CC6)C[C@H]5/C=C\CCCCC[C@H](NC(=O)N5CCC5)C(=O)N4C3)cc(OCC(F)(F)F)nc2c1C [Compound 2017, (2R,6S,12Z,13aS,14aR,16aS)-6-[(azetidin-1-ylcarbonyl)amino]-2-{[7-methoxy-8-methyl-2-(2,2,2-trifluoroethoxy)quinolin-4-yl]oxy}-N-[(1-methylcyclopropyl)sulfonyl]-5,16-dioxo-1,2,3,6,7,8,9,10,11,13a,14,15,16,16a-tetradecahydrocyclopropa[e]pyrrolo[1,2-a][1,4]diazacyclopentadecine-14a(5H)-carboxamide] | 6.3 | 1.1 |  | 
11 | CC[C@@H]1C[C@]1(NC(=O)[C@@H]1C[C@@H]2CN1C(=O)[C@H](C(C)(C)C)NC(=O)OCC(C)(C)CCCCc1cccc3c1CN(C3)C(=O)O2)C(=O)NS(=O)(=O)C1CC1 [reference compound] |  |  | 1200 | 4400
12 | COc1ccc2c(O[C@@H]3C[C@H]4C(=O)N[C@]5(C(=O)NS(=O)(=O)C6(C)CC6)C[C@H]5/C=C\CCCCC[C@H](NC(=O)c5ccn(C)n5)C(=O)N4C3)cc(OC(C)C)nc2c1OC [Compound 1005, (2R,6S,12Z,13aS,14aR,16aS)-2-{[7,8-dimethoxy-2-(propan-2-yloxy)quinolin-4-yl]oxy}-N-[(1-methylcyclopropyl)sulfonyl]-6-{[(1-methyl-1H-pyrazol-3-yl)carbonyl]amino}-5,16-dioxo-1,2,3,6,7,8,9,10,11,13a,14,15,16,16a-tetradecahydrocyclopropa[e]pyrrolo[1,2-a][1,4]diazacyclopentadecine-14a(5H)-carboxamide] | 2.5 | 2 |  | 
13 | COc1ccc2c(O[C@@H]3C[C@H]4C(=O)N[C@]5(C(=O)NS(=O)(=O)C6CC6)C[C@H]5/C=C\CCCCC[C@H](NC(=O)c5ccn(C)n5)C(=O)N4C3)cc(OCC(F)(F)F)nc2c1C [Compound 1015, (2R,6S,12Z,13aS,14aR,16aS)-N-(cyclopropylsulfonyl)-2-{[7-methoxy-8-methyl-2-(2,2,2-trifluoroethoxy)quinolin-4-yl]oxy}-6-{[(1-methyl-1H-pyrazol-3-yl)carbonyl]amino}-5,16-dioxo-1,2,3,6,7,8,9,10,11,13a,14,15,16,16a-tetradecahydrocyclopropa[e]pyrrolo[1,2-a][1,4]diazacyclopentadecine-14a(5H)-carboxamide] | 8.2 | 0.57 |  | 
14 | CCOc1cc(O[C@@H]2C[C@H]3C(=O)N[C@]4(C(=O)NS(=O)(=O)C5(C)CC5)C[C@H]4/C=C\CCCCC[C@H](NC(=O)N(C)C)C(=O)N3C2)c2ccc(OC)c(Br)c2n1 [Compound 2019, (2R,6S,12Z,13aS,14aR,16aS)-2-[(8-bromo-2-ethoxy-7-methoxyquinolin-4-yl)oxy]-6-[(dimethylcarbamoyl)amino]-N-[(1-methylcyclopropyl)sulfonyl]-5,16-dioxo-1,2,3,6,7,8,9,10,11,13a,14,15,16,16a-tetradecahydrocyclopropa[e]pyrrolo[1,2-a][1,4]diazacyclopentadecine-14a(5H)-carboxamide] | 5.2 | 1.4 |  | 
